From publication PMC7286362 (Journal of medicinal chemistry, 2020) come the findings set out here.

Series [1] addresses T1, PRMT6 (Homo sapiens, UniProt Q96LA8). It is filed as cell-based. To be noted: for inhibition of H3R2me2a in cells: PRMT6-transfected HEK293T cells, 20 h.
The target of series [2] is T1, PRMT6. Kind of series: KI and kinact determination from time-dependent IC50 values. To be noted: for time dependence of IC50 against PRMT6: preincubation 1 to 30 min, SPA. In kind it is biochemical.
For a further series, the system named is MCF-7 cells. As to the kind of experiment: Cell viability assay. In kind it is cell-based. To be noted: up to 20 μM, 3 days, CCK-8.
Series [3] addresses T1, PRMT6. As to the kind of experiment: Mass spectrometry analysis of covalent binding, PRMT6. To be noted: 15 μM protein, 300 μM compound, 1 h at rt.
Another series concerns type I PRMTs. Kind of series: Methyltransferase selectivity assay, type I PRMTs. It is filed as biochemical.
The test system of the next series is HEK293T cells. Kind of series: Cell viability assay. In kind it is cell-based. To be noted: up to 20 μM, 3 days, CCK-8.
For series [4], the target named is T2, PRMT3 (Homo sapiens, UniProt O60678). In kind it is cell-based. To be noted: HEK293T cells, 20 h, concentrations up to 20 μM.
T2 sequence (O60678 whole entry, species assumed): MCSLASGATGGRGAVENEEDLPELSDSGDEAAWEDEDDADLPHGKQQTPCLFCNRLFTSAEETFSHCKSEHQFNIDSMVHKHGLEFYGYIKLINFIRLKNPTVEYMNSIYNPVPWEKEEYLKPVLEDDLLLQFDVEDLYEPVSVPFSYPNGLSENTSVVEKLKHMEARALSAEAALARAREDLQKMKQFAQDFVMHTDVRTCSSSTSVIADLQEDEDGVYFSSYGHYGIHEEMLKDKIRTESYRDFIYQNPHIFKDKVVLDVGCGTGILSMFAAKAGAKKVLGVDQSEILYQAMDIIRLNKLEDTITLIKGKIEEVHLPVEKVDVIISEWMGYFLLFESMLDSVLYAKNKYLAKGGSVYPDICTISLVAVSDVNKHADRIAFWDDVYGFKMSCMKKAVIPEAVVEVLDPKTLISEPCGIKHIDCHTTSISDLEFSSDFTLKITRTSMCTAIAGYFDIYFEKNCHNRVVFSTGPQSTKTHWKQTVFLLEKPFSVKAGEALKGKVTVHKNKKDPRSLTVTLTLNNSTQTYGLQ
Series [5] deals with PNT2 (a nontumorigenic prostate cell line). As to the kind of experiment: Cell viability assay. In kind it is cell-based. To be noted: up to 20 μM, 3 days, CCK-8.
Series [6] addresses T1, PRMT6. As to the kind of experiment: Scintillation proximity assay. To be noted: SPA, 1 h preincubation. It is filed as biochemical.
Series [7] deals with T3, endogenously expressed PRMT4 (Homo sapiens, UniProt Q86X55).
T3 sequence (Q86X55 1-608): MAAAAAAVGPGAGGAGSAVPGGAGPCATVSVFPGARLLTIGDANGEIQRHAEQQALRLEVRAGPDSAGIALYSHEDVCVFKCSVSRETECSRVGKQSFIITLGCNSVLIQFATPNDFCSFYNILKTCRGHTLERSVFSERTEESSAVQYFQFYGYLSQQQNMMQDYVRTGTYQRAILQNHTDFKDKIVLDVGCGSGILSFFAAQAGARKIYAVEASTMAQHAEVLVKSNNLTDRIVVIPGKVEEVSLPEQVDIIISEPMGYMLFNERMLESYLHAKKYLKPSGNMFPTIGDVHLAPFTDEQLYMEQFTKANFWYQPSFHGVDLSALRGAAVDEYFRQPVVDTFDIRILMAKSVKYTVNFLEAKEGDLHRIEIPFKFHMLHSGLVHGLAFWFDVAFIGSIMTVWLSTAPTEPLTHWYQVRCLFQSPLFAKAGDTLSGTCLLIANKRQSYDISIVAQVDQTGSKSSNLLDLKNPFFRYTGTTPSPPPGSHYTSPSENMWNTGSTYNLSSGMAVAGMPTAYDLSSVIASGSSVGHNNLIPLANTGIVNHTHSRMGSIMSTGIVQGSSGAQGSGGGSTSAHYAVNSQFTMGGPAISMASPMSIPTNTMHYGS
As to the kind of experiment: Cellular PRMT4 assay: BAF155-Rme2a levels in MCF7 cells. In kind it is cell-based. To be noted: 2 days, concentrations up to 20 μM.

A further series deals with DNMT3A/3L (Homo sapiens, UniProt Q9Y6K1). Kind of series: Methyltransferase selectivity assay, DNMT3A/3L. To be noted: read-out: inhibition of DNMT3A/3L. In kind it is biochemical.
Chain of DNMT3A/3L (Q9Y6K1 whole entry, looked up, species assumed): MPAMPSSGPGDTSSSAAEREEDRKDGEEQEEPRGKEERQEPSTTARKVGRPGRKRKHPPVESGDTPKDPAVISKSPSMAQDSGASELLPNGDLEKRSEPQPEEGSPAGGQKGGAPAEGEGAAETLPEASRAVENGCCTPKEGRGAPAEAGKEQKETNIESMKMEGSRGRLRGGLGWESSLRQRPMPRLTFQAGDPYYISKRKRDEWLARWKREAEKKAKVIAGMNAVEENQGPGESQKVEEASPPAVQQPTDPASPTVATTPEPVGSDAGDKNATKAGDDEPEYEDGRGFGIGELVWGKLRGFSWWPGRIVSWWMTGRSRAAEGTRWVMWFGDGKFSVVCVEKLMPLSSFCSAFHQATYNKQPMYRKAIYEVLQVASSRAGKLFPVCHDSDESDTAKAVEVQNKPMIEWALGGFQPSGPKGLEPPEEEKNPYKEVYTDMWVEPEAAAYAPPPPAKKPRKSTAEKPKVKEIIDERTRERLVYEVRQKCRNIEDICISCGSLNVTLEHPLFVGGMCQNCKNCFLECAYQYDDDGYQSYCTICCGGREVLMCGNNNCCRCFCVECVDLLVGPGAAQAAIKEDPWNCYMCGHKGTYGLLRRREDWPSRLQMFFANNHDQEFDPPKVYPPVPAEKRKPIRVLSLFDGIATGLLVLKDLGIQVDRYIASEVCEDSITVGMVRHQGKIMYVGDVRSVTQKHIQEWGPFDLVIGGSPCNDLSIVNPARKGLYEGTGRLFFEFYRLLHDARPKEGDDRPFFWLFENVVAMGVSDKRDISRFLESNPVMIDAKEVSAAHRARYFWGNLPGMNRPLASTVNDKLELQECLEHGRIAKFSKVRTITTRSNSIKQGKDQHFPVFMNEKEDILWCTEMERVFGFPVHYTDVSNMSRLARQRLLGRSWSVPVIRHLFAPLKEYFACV
Chain of DNMT3A/3L (Q9UJW3 whole entry partner, species assumed): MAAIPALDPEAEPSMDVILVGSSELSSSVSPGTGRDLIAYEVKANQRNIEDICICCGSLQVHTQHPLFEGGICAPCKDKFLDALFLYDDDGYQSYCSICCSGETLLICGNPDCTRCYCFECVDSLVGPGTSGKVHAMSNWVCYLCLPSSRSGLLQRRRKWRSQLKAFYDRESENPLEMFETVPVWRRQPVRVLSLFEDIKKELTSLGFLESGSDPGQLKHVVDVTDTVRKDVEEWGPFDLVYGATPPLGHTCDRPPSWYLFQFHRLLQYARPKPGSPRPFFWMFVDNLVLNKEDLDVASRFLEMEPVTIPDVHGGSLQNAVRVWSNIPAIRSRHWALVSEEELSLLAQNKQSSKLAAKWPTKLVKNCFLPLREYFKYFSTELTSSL
The next series concerns the target PRMT8 (Homo sapiens, UniProt Q9NR22). As to the kind of experiment: Mass spectrometry analysis of covalent binding, PRMT8. To be noted: 15 μM protein, 300 μM compound, 1 h at rt.
Series [8] concerns the target T2, PRMT3. As to the kind of experiment: Mass spectrometry analysis of covalent binding, PRMT3. To be noted: 15 μM protein, 300 μM compound, 1 h at rt.
For series [9], the system named is PKMTs, DNMTs, and type II, III PRMTs. As to the kind of experiment: Methyltransferase selectivity assay, PKMTs, DNMTs and type II, III PRMTs. In kind it is biochemical. To be noted: at 10 μM.
The target of another series is T4, PRMT4 (Homo sapiens, UniProt Q86X55).
T4 sequence (Q86X55 1-608): T3 sequence (Q86X55 1-608)
As to the kind of experiment: Mass spectrometry analysis of covalent binding, PRMT4. To be noted: 15 μM protein, 300 μM compound, 1 h at rt.

In a further series the target is PRMT1 (Homo sapiens, UniProt Q99873). As to the kind of experiment: Mass spectrometry analysis of covalent binding, PRMT1. To be noted: 15 μM protein, 300 μM compound, 1 h at rt.
Chain of PRMT1 (Q99873 whole entry, species assumed): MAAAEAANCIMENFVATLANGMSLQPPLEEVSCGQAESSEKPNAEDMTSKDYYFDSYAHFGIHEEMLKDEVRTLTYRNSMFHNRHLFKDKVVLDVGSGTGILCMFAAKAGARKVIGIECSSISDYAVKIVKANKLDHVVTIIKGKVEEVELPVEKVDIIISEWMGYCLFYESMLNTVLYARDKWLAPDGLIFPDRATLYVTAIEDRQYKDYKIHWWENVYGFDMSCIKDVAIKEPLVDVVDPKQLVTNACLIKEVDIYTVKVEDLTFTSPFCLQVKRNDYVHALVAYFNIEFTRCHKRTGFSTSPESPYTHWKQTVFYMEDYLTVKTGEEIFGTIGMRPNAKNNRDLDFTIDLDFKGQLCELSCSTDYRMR

Read-outs that look alike come from different tables or passages of the source.

T1 sequence (Q96LA8 whole entry): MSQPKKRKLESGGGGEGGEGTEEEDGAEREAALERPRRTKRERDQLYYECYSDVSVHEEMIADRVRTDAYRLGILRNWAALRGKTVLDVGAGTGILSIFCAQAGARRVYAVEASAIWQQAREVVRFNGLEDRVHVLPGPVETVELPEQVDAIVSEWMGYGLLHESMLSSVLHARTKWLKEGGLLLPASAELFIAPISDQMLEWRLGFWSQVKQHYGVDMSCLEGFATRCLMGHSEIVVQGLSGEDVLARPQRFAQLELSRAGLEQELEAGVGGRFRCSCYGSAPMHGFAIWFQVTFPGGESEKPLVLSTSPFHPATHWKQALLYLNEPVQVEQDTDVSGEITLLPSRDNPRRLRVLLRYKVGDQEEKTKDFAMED
Chain of PRMT8 (Q9NR22 whole entry, species assumed): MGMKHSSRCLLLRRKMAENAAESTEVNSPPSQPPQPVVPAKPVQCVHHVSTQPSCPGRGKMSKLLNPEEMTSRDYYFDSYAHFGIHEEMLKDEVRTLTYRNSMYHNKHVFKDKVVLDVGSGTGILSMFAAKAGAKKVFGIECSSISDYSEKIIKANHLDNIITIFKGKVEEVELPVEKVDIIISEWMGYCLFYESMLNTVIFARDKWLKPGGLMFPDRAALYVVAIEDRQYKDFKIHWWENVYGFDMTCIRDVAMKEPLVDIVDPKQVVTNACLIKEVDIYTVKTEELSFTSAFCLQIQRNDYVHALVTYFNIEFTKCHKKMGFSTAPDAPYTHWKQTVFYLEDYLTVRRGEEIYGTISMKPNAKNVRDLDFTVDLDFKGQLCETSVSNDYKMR

With `CCC(=O)Nc1cccc(-c2c[nH]cc2CN(C)CCN)c1` [Compound 5, N-(3-(4-(((2-Aminoethyl)(methyl)amino)methyl)-1H-pyrrol-3-yl)-phenyl)propionamide], at PRMT6 [1] (concentrations up to 10 μM), the “inhibition of H3R2me2a in cells” value is listed as “inhibited H3R2me2a, but was less effective than compound 4”. In addition, the “time dependence of IC50 against PRMT6” value on PRMT6 [2] was “no significant change in IC50 values”. For the same molecule, the “cytotoxicity in MCF-7 cells” value with MCF-7 cells is given as “not cytotoxic”. At PRMT6 [3], the “covalent modification of PRMT6 (MS adduct)” value is listed as “neither compound 5 nor compound 7 could modify PRMT6 in a detected level”. Further, the “inhibition of type I PRMTs” value in the series on type I PRMTs (at 10 μM) was > 40%; in the series on type I PRMTs (at 50 μM), > 80%. Moreover, the “cytotoxicity in HEK293T cells” value in the series on HEK293T cells is “not cytotoxic”. Moreover, on PRMT3 [4], the “reduction of PRMT3-dependent H4R3me2a in cells” value is reported as “did not significantly reduce this mark”. In addition, the “cytotoxicity in PNT2 cells” value in series [5] is “not cytotoxic”. Also, the “pIC50 against PRMT6” value against PRMT6 [6] is on record as 7.6 ± 0.1. Also, the “reduction of BAF155-Rme2a levels in cells” value in series [7] is recorded as “did not reduce”.

In the case of `CC(C)Oc1ccc(-c2c[nH]cc2CN(C)CCN)cc1` [MS023, reference compound], at PRMT6 [1] (at 2 μM (positive control)), the “inhibition of H3R2me2a in cells” value is on record as “effectively inhibited H3R2me2a”.

In the case of `C=CC(=O)Nc1cccc(-c2c[nH]cc2CN(C)CCO)c1` [Compound 7, N-(3-(4-(((2-Hydroxyethyl)(methyl)amino)methyl)-1H-pyrrol-3-yl)phenyl)acrylamide], on PRMT6 [1] (concentrations up to 10 μM), the “inhibition of H3R2me2a in cells” value is on record as “did not significantly inhibit H3R2me2a”. In addition, the “cytotoxicity in MCF-7 cells” value in the series with MCF-7 cells is on record as “not cytotoxic”. Besides, the “covalent modification of PRMT6 (MS adduct)” value on PRMT6 [3] was “neither compound 5 nor compound 7 could modify PRMT6 in a detected level”. The “cytotoxicity in HEK293T cells” value in the series on HEK293T cells is on record as “not cytotoxic”. The “reduction of PRMT3-dependent H4R3me2a in cells” value on PRMT3 [4] was “did not significantly reduce this mark”. Besides, the “cytotoxicity in PNT2 cells” value in series [5] is listed as “not cytotoxic”. For the same molecule, the “reduction of BAF155-Rme2a levels in cells” value in [7] is recorded as “did not reduce”.

Take `C=CC(=O)Nc1cccc(-c2c[nH]cc2CN(C)CCN)c1` [Compound 4, N-(3-(4-(((2-Aminoethyl)(methyl)amino)methyl)-1H-pyrrol-3-yl)-phenyl)acrylamide]: on PRMT6 [1] (from cellular assays), the “selectivity for PRMT6 over PRMT1 in cells” value is ~ 4 fold and the “selectivity for PRMT6 over PRMT4 in cells” value was > 20 fold. Moreover, on PRMT6 [2], the kinact/KI was 83000 M⁻¹ s⁻¹ and the “time dependence of IC50 against PRMT6” value is “time-dependent potencies”. Further, the inhibition at 50 µM at DNMT3A/3L is > 50%. For the same molecule, the “cytotoxicity in MCF-7 cells” value with MCF-7 cells was “not cytotoxic”. Moreover, the “covalent modification of PRMT6 (MS adduct)” value on PRMT6 [3] is reported as “adduct with mass equal to PRMT6 plus compound 4, with no detectable unmodified PRMT6”. For the same molecule, at PRMT8, the “covalent modification of PRMT8 (MS adduct)” value was “no adducts with other type I PRMTs could be detected”. For the same molecule, the “inhibition of type I PRMTs” value in the series with type I PRMTs (at 10 μM) was > 90%. Further, in the series with type I PRMTs (at 50 μM), the “inhibition of type I PRMTs” value was > 50%. Moreover, on PRMT3 [8], the “covalent modification of PRMT3 (MS adduct)” value was “no adducts with other type I PRMTs could be detected”. In the series on HEK293T cells, the “cytotoxicity in HEK293T cells” value is listed as “not cytotoxic”. Moreover, the “reduction of PRMT3-dependent H4R3me2a in cells” value at PRMT3 [4] is on record as “did not significantly reduce this mark”. In series [9], the “inhibition of PKMTs, DNMTs, and type II, III PRMTs” value is “did not significantly inhibit”. For the same molecule, the “covalent modification of PRMT4 (MS adduct)” value on PRMT4 was “no adducts with other type I PRMTs could be detected”. In series [5], the “cytotoxicity in PNT2 cells” value was “not cytotoxic”. On PRMT1, the “covalent modification of PRMT1 (MS adduct)” value was “no adducts with other type I PRMTs could be detected”. Also, the “reduction of BAF155-Rme2a levels in cells” value in series [7] is given as “did not reduce”.
